Results published in ChEMBL document CHEMBL4689842, “EUbOPEN Chemogenomics Library wave 1” (2021).

What was measured:
[1] = tested on: U2OS; experiment: Incucyte cell viability with U2OS; format: toxicity, cell-based; conditions: human, 10 µM, compound concentration 10 uM
[2] = tested on: HEK-293T; experiment: Incucyte cell viability with HEK293T; format: toxicity, cell-based; conditions: human, 10 µM, compound concentration 10 uM
[3] = 0 h, replicate number 2, timepoint 0 hours
[4] = 6 h, replicate number 1, timepoint 6 hours
[5] = 12 h, replicate number 1, timepoint 12 hours
[6] = 12 h, replicate number 2, timepoint 12 hours
[7] = 18 h, replicate number 1, timepoint 18 hours
[8] = 24 h, replicate number 1, timepoint 24 hours
[9] = 24 h, replicate number 2, timepoint 24 hours
[10] = 0 h, replicate number 1, timepoint 0 hours
[11] = 6 h, replicate number 2, timepoint 6 hours
Note: filed as whole numbers so only -1 and 0 and 1 occur.

Cn1nc(C(F)(F)F)cc1-c1cnc(N2CCc3cc(S(=O)(=O)Nc4c(F)cc(Cl)cc4F)cc(N4CCCC4=O)c32)nc1 [TP-020]
Growth Rate [1, 3]: 1 | Growth Rate [1, 4]: 0 | Growth Rate [1, 5]: 1 | Growth Rate [1, 6]: 0 | Growth Rate [1, 7]: 1 | Growth Rate ([1]; 18 h, replicate number 2, timepoint 18 hours): 0 | Growth Rate [1, 8]: 1 | Growth Rate [1, 9]: 0 | Growth Rate [2, 10]: 0 | Growth Rate [2, 3]: 1 | Growth Rate [2, 4]: 0 | Growth Rate [2, 11]: 1 | Growth Rate [2, 5]: 0 | Growth Rate [2, 7]: 0 | Growth Rate [2, 8]: 0

O=C(Nc1ccc(-n2nc(-c3cccnc3)cc2C(F)(F)F)cn1)c1ccc(-c2ccccc2)c(F)c1 [BI 2049]
Growth Rate [1, 4]: 0 | Growth Rate [1, 11]: 1 | Growth Rate [1, 5]: 0 | Growth Rate [1, 7]: 0 | Growth Rate [1, 8]: 0 | Growth Rate [2, 10]: 1 | Growth Rate [2, 4]: 0 | Growth Rate [2, 5]: 0 | Growth Rate [2, 7]: 0 | Growth Rate [2, 8]: 0

O=C1NC(=O)C(c2cnc3ccccn23)=C1c1cn2c3c(cc(F)cc13)CN(C(=O)N1CCCCC1)CC2 [LY-2090314]
Growth Rate [1, 10]: 0 | Growth Rate [1, 4]: 0 | Growth Rate [1, 5]: 0 | Growth Rate [1, 7]: 0 | Growth Rate [1, 8]: 0 | Growth Rate [2, 10]: 0 | Growth Rate [2, 4]: 0 | Growth Rate [2, 6]: 0 | Growth Rate [2, 7]: 1 | Growth Rate [2, 8]: 1 | Growth Rate [2, 9]: 0

CN1CCC(=C2c3ccccc3CC(=O)c3sccc32)CC1.O=C(O)/C=C/C(=O)O [KETOTIFEN FUMARATE]
Growth Rate [1, 10]: 1 | Growth Rate [1, 11]: 0 | Growth Rate [1, 5]: 1 | Growth Rate [1, 7]: 1 | Growth Rate [1, 8]: 1 | Growth Rate [1, 9]: 0 | Growth Rate [2, 3]: 1 | Growth Rate [2, 4]: 0 | Growth Rate [2, 5]: 0 | Growth Rate [2, 7]: 0 | Growth Rate [2, 8]: 0

CCN1CCN(c2ccc(Nc3cc(N(C)C(=O)Nc4c(Cl)c(OC)cc(OC)c4Cl)ncn3)cc2)CC1 [INFIGRATINIB]
Growth Rate [1, 3]: 0 | Growth Rate [1, 4]: 1 | Growth Rate [1, 5]: 0 | Growth Rate [1, 7]: 0 | Growth Rate [1, 8]: 0 | Growth Rate [2, 4]: 0 | Growth Rate [2, 5]: 0 | Growth Rate [2, 7]: 0 | Growth Rate [2, 8]: 0

CCNc1cc(N[C@H]2CC[C@H](O)CC2)nc(Nc2ccc3c(ccn3Cc3ccccc3)c2)n1
Growth Rate [1, 10]: 0 | Growth Rate [1, 4]: 0 | Growth Rate [1, 5]: 0 | Growth Rate [1, 7]: 0 | Growth Rate [1, 8]: 0 | Growth Rate [2, 4]: 0 | Growth Rate [2, 5]: 0 | Growth Rate [2, 7]: 0 | Growth Rate [2, 8]: 0

CCn1cc(-c2ccnc3[nH]c(-c4cccc(CN(C)C)c4)cc23)c(-c2ccc(NC(=O)N(C)C)cc2)n1 [GSK-1070916]
Growth Rate [1, 10]: 1 | Growth Rate [1, 4]: 0 | Growth Rate [1, 5]: 0 | Growth Rate [1, 7]: 0 | Growth Rate [1, 8]: 0 | Growth Rate [2, 3]: 1 | Growth Rate [2, 4]: 0 | Growth Rate [2, 5]: 0 | Growth Rate [2, 7]: 0 | Growth Rate [2, 8]: 0

COC(=N)c1nc2ccc3ncnc(Nc4ccc(OC)cc4F)c3c2s1
Growth Rate [1, 3]: 1 | Growth Rate [1, 11]: 1 | Growth Rate [1, 5]: 0 | Growth Rate [1, 7]: 0 | Growth Rate [1, 8]: 0 | Growth Rate [2, 10]: 0 | Growth Rate [2, 3]: 1 | Growth Rate [2, 4]: 0 | Growth Rate [2, 5]: 0 | Growth Rate [2, 7]: 0 | Growth Rate [2, 8]: 0
